Assay [1] addresses T1, HIF-2α (Homo sapiens, UniProt Q99814). The assay can be described thus: HIF-2α Luciferase Reporter Assay (serum free) in HIF-Luc-786-0 cells. Format: cell-based. As to conditions: Opti-MEM, 786-0 reporter cells, 20 hours incubation. A digest of the protocol:
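786-0 cells stably transduced with HIF luciferase reporter, 20,000 cells/well in serum-free Opti-MEM, compounds (50 uM downward, 1% DMSO) 20 h at 37 °C. ONE-Glo luminescence normalized to DMSO and no-cell controls; IC50 from four-parameter fit.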
(In general: In a reporter assay the amount or activity of a reporter protein is the signal.)

The target of assay [2] is T1, HIF-2α. Kind of assay: HIF-2α Luciferase Reporter Assay (serum), HRE-luciferase 786-0 cells in 100% human serum. Format: cell-based. Particulars: for IC50: 100% human serum, 786-0 reporter cells, overnight incubation, read-out: Serum Potency; for Serum Shift (approximate): ratio of IC50 in 100% serum to IC50 in serum free conditions. The method in brief: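 786-0 cells stably expressing an HRE-luciferase reporter were plated and rested 3 h. They were then treated overnight at 37 °C with compound diluted in 100% human serum. Serum was replaced with Opti-MEM, ONE-Glo luminescence was read, and IC50 came from a 4-parameter logistic fit.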

T1 sequence (Q99814 whole entry): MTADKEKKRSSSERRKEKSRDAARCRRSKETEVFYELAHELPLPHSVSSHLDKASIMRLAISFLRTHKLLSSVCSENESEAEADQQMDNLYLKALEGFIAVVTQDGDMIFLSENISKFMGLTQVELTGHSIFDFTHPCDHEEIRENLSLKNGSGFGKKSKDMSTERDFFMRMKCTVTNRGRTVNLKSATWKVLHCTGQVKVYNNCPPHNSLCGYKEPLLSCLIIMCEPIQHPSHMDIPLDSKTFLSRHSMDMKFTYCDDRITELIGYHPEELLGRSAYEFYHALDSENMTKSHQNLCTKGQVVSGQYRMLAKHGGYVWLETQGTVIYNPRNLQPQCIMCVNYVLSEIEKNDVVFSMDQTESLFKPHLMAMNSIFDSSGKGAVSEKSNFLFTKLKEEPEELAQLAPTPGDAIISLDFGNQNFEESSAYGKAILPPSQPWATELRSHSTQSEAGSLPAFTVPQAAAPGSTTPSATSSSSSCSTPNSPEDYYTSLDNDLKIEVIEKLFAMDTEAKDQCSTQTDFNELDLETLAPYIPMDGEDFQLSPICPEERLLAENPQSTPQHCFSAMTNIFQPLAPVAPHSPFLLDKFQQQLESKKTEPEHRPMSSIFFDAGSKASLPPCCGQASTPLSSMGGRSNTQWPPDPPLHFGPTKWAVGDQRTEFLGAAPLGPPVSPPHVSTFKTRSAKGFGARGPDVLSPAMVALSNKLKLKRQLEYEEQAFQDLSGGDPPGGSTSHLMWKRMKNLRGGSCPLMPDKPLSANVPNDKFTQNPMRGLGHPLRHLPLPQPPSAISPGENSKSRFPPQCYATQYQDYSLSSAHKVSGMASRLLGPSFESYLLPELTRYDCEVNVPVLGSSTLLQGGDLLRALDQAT

As for `O[C@H]1c2c(C(F)(F)F)nn(C3CC[C@H](F)[C@H](F)C3)c2CC1(F)F` (single isomer, unassigned) [72/73 DIAST-2], the IC50 in assay [1] is < 100 nM. Further, in assay [2], the IC50 is 100 to 1000 nM and the “Serum Shift (approximate)” value is recorded as 3.
Taken in the same sequence, the figures for `O=S1(=O)CC(Cn2nc(C(F)(F)F)c3c2CC(F)(F)[C@H]3O)C1` [Example 57, (4S)-1-[(1,1-dioxothietan-3-yl)methyl]-5,5-difluoro-3-(trifluoromethyl)-4,6-dihydrocyclopenta[c]pyrazol-4-ol] were 100 to 1000 nM, 100 to 1000 nM and 2.
Taken in the same sequence, the figures for `O[C@H]1c2c(C(F)(F)F)nn([C@H]3C[C@@H]4[C@H](C3)C4(F)F)c2CC1(F)F` (single isomer, unassigned) [125/126 DIAST-1] were 100 to 1000 nM, > 1000 nM and 9.
On to `O[C@H]1c2c(C(F)(F)F)nn([C@H]3C[C@@]4(CC4(F)F)C3)c2CC1(F)F` [Example 64, (4S)-5,5-difluoro-1-[(3r,5r)-1,1-difluorospiro[2.3]hexan-5-yl]-3-(trifluoromethyl)-4,6-dihydrocyclopenta[c]pyrazol-4-ol], for which the IC50 in assay [1] is < 100 nM. Besides, in assay [2], the IC50 is > 1000 nM and the “Serum Shift (approximate)” value is recorded as 12.
On the same counts, the results for `O[C@H]1c2c(C(F)(F)F)nn([C@@H]3CCCC(F)(F)C3)c2[C@@H](F)[C@H]1F` (single isomer, unassigned) [136/137 DIAST-2] are < 100 nM, 100 to 1000 nM and 7.
Consider `O=S1(=O)CC(Cn2nc(C(F)(F)F)c3c2C[C@@H](F)[C@H]3O)C1` [Example 84, 3-{[(4S,5R)-5-fluoro-4-hydroxy-3-(trifluoromethyl)-1H,4H,5H,6H-cyclopenta[c]pyrazol-1-yl]methyl}-1λ^6-thietane-1,1-dione], for which the IC50 in assay [1] is 100 to 1000 nM; in assay [2], > 1000 nM. The “Serum Shift (approximate)” value in assay [2] worked out at 2.
On the same counts, the results for `O[C@H]1c2c(C(F)(F)F)nn([C@H]3CCC(F)(F)[C@H](F)C3)c2CC1(F)F` [Example 122, (4S)-5,5-difluoro-1-[(1S,3R)-3,4,4-trifluorocyclohexyl]-3-(trifluoromethyl)-4,6-dihydrocyclopenta[c]pyrazol-4-ol] are < 100 nM, > 1000 nM and 6.
On the same counts, the results for `CCC(CCn1nc(C(F)(F)F)c2c1CCC(F)(F)[C@H]2O)C(F)(F)F` (stereo partly drawn) [Example 43, (4S)-5,5-difluoro-3-(trifluoromethyl)-1-[3-(trifluoromethyl)pentyl]-6,7-dihydro-4H-indazol-4-ol] are 100 to 1000 nM, > 1000 nM and 17.
Taken in the same sequence, the figures for `O[C@H]1c2c(C(F)(F)F)nn([C@H]3CC[C@H](F)CC3)c2CC1(F)F` [Example 96, (4S)-5,5-difluoro-1-(4-fluorocyclohexyl)-3-(trifluoromethyl)-4,6-dihydrocyclopenta[c]pyrazol-4-ol] were < 100 nM, > 1000 nM and 7.
On to `O[C@H]1c2c(C(F)(F)F)nn(CC3CC3C(F)(F)F)c2CCC1(F)F` (stereo partly drawn) [Example 59, (4S)-5,5-difluoro-3-(trifluoromethyl)-1-[[2-(trifluoromethyl)cyclopropyl]methyl]-6,7-dihydro-4H-indazol-4-ol], for which the IC50 in assay [1] was in the range of 100 to 1000 nM. Also, in assay [2], the IC50 is > 1000 nM and the “Serum Shift (approximate)” value stood at 7.
On the same counts, the results for `O[C@H]1c2c(C(F)(F)F)nn([C@@H]3CCC[C@@H](C(F)(F)F)C3)c2CC1(F)F` [Example 80, (4S)-5,5-difluoro-3-(trifluoromethyl)-1-[(1R)-3-(trifluoromethyl)cyclohexyl]-1H,4H,5H,6H-cyclopenta[c]pyrazol-4-ol] are 100 to 1000 nM, > 1000 nM and >41.
On to `O[C@H]1c2c(C(F)(F)F)nn(C3CCC(F)(F)CC3)c2[C@@H](F)[C@H]1F` [Example 132, (4S,5S,6R)-1-(4,4-difluorocyclohexyl)-5,6-difluoro-3-(trifluoromethyl)-5,6-dihydro-4H-cyclopenta[c]pyrazol-4-ol], for which, in assay [1], the IC50 is < 100 nM. Further, in assay [2], the IC50 is > 1000 nM and the “Serum Shift (approximate)” value is given as 8.
Taken in the same sequence, the figures for `O[C@H]1c2c(C(F)(F)F)nn([C@@H]3CC[C@@H](F)[C@@H](F)C3)c2[C@@H](F)C1(F)F` [Example 156, (4S,6R)-1-[(1R,3S,4R)-3,4-difluorocyclohexyl]-5,5,6-trifluoro-3-(trifluoromethyl)-4,6-dihydrocyclopenta[c]pyrazol-4-ol] were < 100 nM, 100 to 1000 nM and 8.
On the same counts, the results for `O[C@H]1c2c(C(F)(F)F)nn([C@H]3CCCC(F)(F)C3)c2[C@@H](F)[C@H]1F` (single isomer, unassigned) [136/137 DIAST-1] are < 100 nM, > 1000 nM and 4.
Taken in the same sequence, the figures for `O[C@H]1c2c(C(F)(F)F)nn([C@@H]3CC[C@@H](F)[C@@H](F)C3)c2[C@H](F)C1(F)F` [Example 153, (4S,6S)-1-[(1R,3S,4R)-3,4-difluorocyclohexyl]-5,5,6-trifluoro-3-(trifluoromethyl)-4,6-dihydrocyclopenta[c]pyrazol-4-ol] were 100 to 1000 nM, > 1000 nM and 18.
In assay [1], `O[C@H]1c2c(C(F)(F)F)nn([C@@H]3CC[C@@H](F)C[C@H]3F)c2CC1(F)F` (single isomer, unassigned) [97/98 DIAST-1] yielded an IC50 of 100 to 1000 nM. Moreover, in assay [2], the IC50 was > 1000 nM and the “Serum Shift (approximate)” value stood at 23.
As for `CO[C@H](CCn1nc(C(F)(F)F)c2c1CC(F)(F)[C@H]2O)C(F)(F)F` [Example 61, (4S)-5,5-difluoro-1-[(3R)-4,4,4-trifluoro-3-methoxybutyl]-3-(trifluoromethyl)-4,6-dihydrocyclopenta[c]pyrazol-4-ol], the IC50 in assay [1] and in assay [2] was < 100 nM each time.
Consider `O[C@H]1c2c(C(F)(F)F)nn(C3CC4(C3)CC(F)(F)C4)c2[C@@H](F)[C@@H]1F` (single isomer, unassigned) [Example 134], for which the IC50 in assay [1] was < 100 nM. For the same compound, in assay [2], the IC50 was > 1000 nM and the “Serum Shift (approximate)” value is recorded as 13.
`O[C@H]1c2c(C(F)(F)F)nn([C@H]3CCC[C@H](C(F)(F)F)C3)c2CC1(F)F` [Example 81, (4S)-5,5-difluoro-3-(trifluoromethyl)-1-[(1S,3S)-3-(trifluoromethyl)cyclohexyl]-1H,4H,5H,6H-cyclopenta[c]pyrazol-4-ol] showed an IC50 in assay [1] of 100 to 1000 nM. Moreover, in assay [2], the IC50 was > 1000 nM and the “Serum Shift (approximate)” value was found to be 49.
On the same counts, the results for `O[C@H]1c2c(C(F)(F)F)nn(CC3CCC(F)(F)CC3)c2CC1(F)F` [Example 113, (4S)-1-[(4,4-difluorocyclohexyl)methyl]-5,5-difluoro-3-(trifluoromethyl)-1H, 4H, 5H, 6H-cyclopenta[c]pyrazol-4-ol] are < 100 nM, > 1000 nM and 14.
On the same counts, the results for `O[C@H]1c2c(C(F)(F)F)nn(C3CCC(F)(F)C3)c2CC1(F)F` (mixture of isomers) [Example 54, (4S)-1-(3,3-difluorocyclopentyl)-5,5-difluoro-3-(trifluoromethyl)-4,6-dihydrocyclopenta[c]pyrazol-4-ol] are 100 to 1000 nM, > 1000 nM and 5.
Taken in the same sequence, the figures for `O[C@H]1c2c(C(F)(F)F)nn(-c3ccc(Cl)c(Cl)c3)c2CC1(F)F` [Example 118, (4S)-1-(3,4-dichlorophenyl)-5,5-difluoro-3-(trifluoromethyl)-4,6-dihydrocyclopenta[c]pyrazol-4-ol] were < 100 nM, > 1000 nM and 119.
For `CO[C@H](CCn1nc(C(F)(F)F)c2c1[C@@H](F)C(F)(F)[C@H]2O)C(F)(F)F` (single isomer, unassigned) [148/149 DIAST-2], in assay [1], the IC50 was < 100 nM. For the same compound, in assay [2], the IC50 lay within 100 to 1000 nM and the “Serum Shift (approximate)” value is listed as 12.
Taken in the same sequence, the figures for `O[C@H]1c2c(C(F)(F)F)nn([C@H]3C[C@H](F)C[C@H](F)C3)c2CC1(F)F` [Example 71, (4S)-1-[(3R,5S)-3,5-difluorocyclohexyl]-5,5-difluoro-3-(trifluoromethyl)-4,6-dihydrocyclopenta[c]pyrazol-4-ol] were < 100 nM, > 1000 nM and 18.
On the same counts, the results for `O[C@H]1c2c(C(F)(F)F)nn(-c3ccc(C(F)(F)F)cc3)c2CC1(F)F` [Example 117, (4S)-5,5-difluoro-3-(trifluoromethyl)-1-[4-(trifluoromethyl)phenyl]-4,6-dihydrocyclopenta[c]pyrazol-4-ol] are < 100 nM, > 1000 nM and >62.
On the same counts, the results for `O[C@H]1c2c(C(F)(F)F)nn([C@H]3CC[C@H](OC(F)F)C3)c2CC1(F)F` (racemic) [Example 110, (4S)-1-[(1R,3R)-3-(difluoromethoxy)cyclopentyl]-5,5-difluoro-3-(trifluoromethyl)-1H,4H,5H,6H-cyclopenta[c]pyrazol-4-ol and (4S)-1-[(1S,3S)-3-(difluoromethoxy)cyclopentyl]-5,5-difluoro-3-(trifluoromethyl)-1H,4H,5H,6H-cyclopenta[c]pyrazol-4-ol] are < 100 nM, > 1000 nM and 225.

(Values after patent US12071411B2, “Inhibitors of HIF-2α and methods of use thereof” (ARCUS BIOSCIENCES, INC., priority 2021, dated 2024).)
